Test results from patent US4411834A, “Preparation of II-deoxy anthracycline antibiotics” (Farmitalia Carlo Erba, S.p.A., priority 1978, dated 1983).
In brackets after ≈: the same amount, converted by molar mass. Where two headings read alike, the source gives them in different places.

What was measured:
[1] = test system: HeLa cells; assay: Effect on HeLa cells viability in vitro; assay type: cell-based; details: Homo sapiens; for activity at 0.05 µg/mL: dose 50 ng/ml; for activity at 0.1 µg/mL: dose 100 ng/ml; for activity at 0.2 µg/mL: dose 200 ng/ml; for activity at 0.4 µg/mL: dose 400 ng/ml
Description: (§1) The new glycosides were tested against HeLa cells in vitro (time of exposure to the drugs: 24 hours), and on L 1210 and P 388 leukemia in mice in comparison with daunomycin.
^(a) HeLa cells were exposed to the drugs for 24 hours, then plated.
Number of colonies was evaluated 5 days later.
^(b) % over untreated controls.

[2] = Toxic deaths in leukemia-bearing mice; assay type: in vivo; details: for Toxic deaths: intraperitoneally on day 1, macroscopic autopsy findings
Description: as §1

[3] = test system: P 388 leukemia; assay: Effect against P 388 leukemia in mice; assay type: in vivo
Description: as §1
^(a) Mice were treated intraperitoneally on day 1 after tumor cell

[4] = test system: Staphylococcus aureus 153; assay: MIC, standard tube dilution procedure; assay type: cell-based; details: in vitro
Description: (§2) The "in vitro" minimum inhibitory concentrations (MIC) of glycosides A, B, C and D were determined for certain microorganisms using the standard tube dilution procedure and are reported in Table 6.

[5] = test system: Staphylococcus aureus 209 P; assay: MIC, standard tube dilution procedure; assay type: cell-based; details: in vitro
Description: as §2

[6] = test system: Sarcina lutea ATCC 9341; assay: MIC, standard tube dilution procedure; assay type: cell-based; details: Micrococcus luteus, ATCC9341, in vitro
Description: as §2

[7] = test system: Escherichia coli B; assay: MIC, standard tube dilution procedure; assay type: cell-based; details: in vitro
Description: as §2

[8] = test system: Bacillus subtilis ATCC 6633; assay: MIC, standard tube dilution procedure; assay type: cell-based; details: ATCC6633, in vitro
Description: as §2

[9] = 24 h, read-out: No. of colonies, % over untreated controls
[10] = 24 h, HeLa cells, 24 hours exposure, colonies evaluated 5 days later (Table 7), read-out: ID50 (the source's name)
[11] = 24 h, HeLa cells, 24 hours exposure, read-out: ID50 (the source's name)
[12] = 24 hours exposure, read-out: No. of colonies, % over untreated controls

COc1cccc2c1C(=O)c1c(O)c3c(c(O)c1C2=O)C[C@@](O)(C(C)=O)C[C@@H]3O[C@H]1C[C@H](N)[C@H](O)[C@H](C)O1 [Daunomycin, reference compound]
IC50 ([1]; 24 h, read-out: ID50): 0.006 to 0.007 µg/mL (≈ 0.0114 to 0.0133 µM) | activity at 0.00312 µg/mL [1, 9]: 71 to 80% | activity at 0.00625 µg/mL [1, 9]: 48 to 66% | Toxic deaths ([2]; 6.6 mg/kg): 14/26

COc1cccc2c1C(=O)c1c(cc3c(c1O)[C@@H](O[C@H]1C[C@H](N)[C@H](O)[C@H](C)O1)C[C@](O)(C(=O)CO)C3)C2=O [Glycoside A, 11-deoxyadriamycin]
IC50 [1, 10]: 0.105 µg/mL (≈ 0.199 µM) | IC50 [1, 11]: 0.1 µg/mL (≈ 0.19 µM) | activity at 0.025 µg/mL ([1]; dose 25 ng/ml, 24 hours exposure, read-out: No. of colonies, % over untreated controls): 74% | activity at 0.05 µg/mL [1, 12]: 73% | activity at 0.1 µg/mL [1, 12]: 63% | activity at 0.2 µg/mL [1, 12]: 1% | Antitumor activity compared with daunomycin (in words) ([3]; at the tolerated dose): greater than that of daunomycin | Activity against P 338 leukemia (in words) ([3]; dose of 66 mg/kg): active | MIC [4]: 500 µg/mL (≈ 948 µM) | MIC [5]: 125 µg/mL (≈ 237 µM) | MIC [6]: 100 µg/mL (≈ 190 µM) | MIC [7]: 50 µg/mL (≈ 94.8 µM) | MIC [8]: 100 µg/mL (≈ 190 µM) | Toxicity (in words) ([2]; dose of 100 mg/kg, mice): toxic

COc1cccc2c1C(=O)c1c(cc3c(c1O)[C@@H](O[C@H]1C[C@H](N)[C@H](O)[C@H](C)O1)C[C@](O)(C(C)O)C3)C2=O (stereo partly drawn) [Glycoside B, 11-deoxy-13-dihydrodaunomycin]
IC50 [1, 11]: 0.44 µg/mL (≈ 0.857 µM) | activity at 0.4 µg/mL [1, 12]: 66% | activity at 0.8 µg/mL ([1]; dose 800 ng/ml, 24 hours exposure, read-out: No. of colonies, % over untreated controls): 20% | activity at 1.6 µg/mL ([1]; dose 1600 ng/ml, 24 hours exposure, read-out: No. of colonies, % over untreated controls): 0% | MIC [4]: 1000 µg/mL (≈ 1950 µM) | MIC [5]: 1000 µg/mL (≈ 1950 µM) | MIC [6]: 100 µg/mL (≈ 195 µM) | MIC [7]: 100 µg/mL (≈ 195 µM) | MIC [8]: 100 µg/mL (≈ 195 µM) | Toxic deaths ([2]; 500 mg/kg): 2/2

COc1cccc2c1C(=O)c1c(cc3c(c1O)[C@@H](O[C@H]1C[C@H](N)[C@H](O)[C@H](C)O1)C[C@](O)(C(C)=O)C3)C2=O [Glycoside C, 11-deoxydaunomycin]
IC50 [1, 10]: 0.054 µg/mL (≈ 0.106 µM) | IC50 [1, 11]: 0.05 µg/mL (≈ 0.0977 µM) | activity at 0.05 µg/mL [1, 12]: 54% | activity at 0.1 µg/mL [1, 12]: 44% | activity at 0.2 µg/mL [1, 12]: 3% | MIC [4]: 250 µg/mL (≈ 489 µM) | MIC [5]: 62 µg/mL (≈ 121 µM) | MIC [6]: 12.5 µg/mL (≈ 24.4 µM) | MIC [7]: 25 µg/mL (≈ 48.9 µM) | MIC [8]: 50 µg/mL (≈ 97.7 µM) | Toxic deaths ([2]; 100 mg/kg): 3/8 | Toxic deaths ([2]; 150 mg/kg): 3/19

CC[C@]1(O)Cc2cc3c(c(O)c2[C@@H](O[C@H]2C[C@H](N)[C@H](O)[C@H](C)O2)C1)C(=O)c1c(OC)cccc1C3=O [Glycoside D, 11-deoxy-13-deoxo-daunomycin]
IC50 [1, 11]: 0.22 µg/mL (≈ 0.442 µM) | activity at 0.1 µg/mL [1, 12]: 109% | activity at 0.2 µg/mL [1, 12]: 53% | activity at 0.4 µg/mL [1, 12]: 0% | MIC [4]: 1000 µg/mL (≈ 2010 µM) | MIC [5]: 250 µg/mL (≈ 502 µM) | MIC [6]: 25 µg/mL (≈ 50.2 µM) | MIC [7]: 50 µg/mL (≈ 100 µM) | MIC [8]: 100 µg/mL (≈ 201 µM) | Toxic deaths ([2]; 125 mg/kg): 5/5 | Toxic deaths ([2]; 250 mg/kg): 5/5
